Literature values in patent US20030040489A1, “Process for producing l-arabinose, l-arabinose-containing enzymatically processed products, diet foods, diabetic diet foods and fruit or vegetable juices and process for producting the same” (priority 1999, published 2003).

Tested on: disaccharide-decomposing enzymes (maltase, sucrase, etc.)
Details: enzymes of duodenal and small intestinal mucosae

O=C[C@H](O)[C@@H](O)[C@@H](O)CO [L-arabinose]
mode of inhibition of disaccharide-decomposing enzymes: uncompetitively inhibits
